Measurements from ChEMBL document CHEMBL1201862, “PubChem BioAssay data set” (2004).
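48-hour exposure; five concentrations; linearly interpolated endpoints. GI50 marks 50% less growth.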 Active and inactive are the calls of the source. No stated cut-off is given here; in the data, active = GI50 up to about 1.1 µM and inactive = higher.

Columns and labels:
Assay in all cases: growth of human tumour cells (NCI), 48 h
LXFL 529 = test system: LXFL 529
NCI-H23 = test system: NCI-H23
EKVX = test system: EKVX
SNB-75 = test system: SNB-75
MOLT-4 = test system: MOLT-4
RPMI-8226 = test system: RPMI-8226
DMS-114 = test system: DMS-114
SK-MEL-5 = test system: SK-MEL-5
SK-MEL-28 = test system: SK-MEL-28
OVCAR-5 = test system: OVCAR-5
RXF 393 = test system: RXF 393
KM-20L2 = test system: KM-20L2
M19-MEL = test system: M19-MEL
786-0 = test system: 786-0
SNB-19 = test system: SNB-19
NCI-H460 = test system: NCI-H460
SF-295 = test system: SF-295
OVCAR-3 = test system: OVCAR-3
HCT-15 = test system: HCT-15
OVCAR-4 = test system: OVCAR-4
HL-60 = test system: HL-60
ACHN = test system: ACHN
UO-31 = test system: UO-31
CAKI-1 = test system: CAKI-1
UACC-62 = test system: UACC-62
XF498 = test system: XF498
A549 = test system: A549
SF-268 = test system: SF-268
KM12 = test system: KM12
SK-OV-3 = test system: SK-OV-3
IGROV-1 = test system: IGROV-1
SK-MEL-2 = test system: SK-MEL-2
LOX IMVI = test system: LOX IMVI
SW-620 = test system: SW-620
Malme-3M = test system: Malme-3M
UACC-257 = test system: UACC-257
COLO 205 = test system: COLO 205
OVCAR-8 = test system: OVCAR-8
SN12C = test system: SN12C
HOP-92 = test system: HOP-92
SNB-78 = test system: SNB-78
M14 = test system: M14
NCI-H522 = test system: NCI-H522
DMS-273 = test system: DMS-273
K562 = test system: K562
TK-10 = test system: TK-10
HOP-62 = test system: HOP-62
DLD-1 = test system: DLD-1
HCC 2998 = test system: HCC 2998
CCRF-CEM = test system: CCRF-CEM
U-251 = test system: U-251
HT-29 = test system: HT-29
SR = test system: SR
NCI-H226 = test system: NCI-H226
HOP-18 = test system: HOP-18
HCT-116 = test system: HCT-116
SF-539 = test system: SF-539
A498 = test system: A498

COc1cc2c(cc1OC)NC(=O)NC(Cc1ccc3c(c1)OCO3)CC2 (stereo unspecified)
GI50 (LXFL 529): > 100 µM (inactive)
GI50 (NCI-H23): > 100 µM (inactive)
GI50 (EKVX): > 100 µM (inactive)
GI50 (SNB-75): 24 µM (inactive)
GI50 (MOLT-4): > 100 µM (inactive)
GI50 (RPMI-8226): 83.9 µM (inactive)
GI50 (DMS-114): > 100 µM (inactive)
GI50 (SK-MEL-5): > 100 µM (inactive)
GI50 (SK-MEL-28): > 100 µM (inactive)
GI50 (OVCAR-5): > 100 µM (inactive)
GI50 (RXF 393): > 100 µM (inactive)
GI50 (KM-20L2): > 100 µM (inactive)
GI50 (M19-MEL): > 100 µM (inactive)
GI50 (786-0): > 100 µM (inactive)
GI50 (SNB-19): > 100 µM (inactive)
GI50 (NCI-H460): > 100 µM (inactive)
GI50 (SF-295): 84.5 µM (inactive)
GI50 (OVCAR-3): > 100 µM (inactive)
GI50 (HCT-15): > 100 µM
GI50 (OVCAR-4): > 100 µM (inactive)
GI50 (HL-60): > 100 µM (inactive)
GI50 (ACHN): > 100 µM (inactive)
GI50 (UO-31): 76.9 µM (inactive)
GI50 (CAKI-1): > 100 µM (inactive)
GI50 (UACC-62): > 100 µM (inactive)
GI50 (XF498): > 100 µM (inactive)
GI50 (A549): > 100 µM (inactive)
GI50 (SF-268): > 100 µM (inactive)
GI50 (KM12): > 100 µM (inactive)
GI50 (SK-OV-3): > 100 µM (inactive)
GI50 (IGROV-1): > 100 µM (inactive)
GI50 (SK-MEL-2): > 100 µM (inactive)
GI50 (LOX IMVI): > 100 µM (inactive)
GI50 (SW-620): > 100 µM (inactive)
GI50 (Malme-3M): > 100 µM (inactive)
GI50 (UACC-257): > 100 µM (inactive)
GI50 (COLO 205): > 100 µM (inactive)
GI50 (OVCAR-8): > 100 µM (inactive)
GI50 (SN12C): > 100 µM (inactive)
GI50 (HOP-92): 30.2 µM (inactive)
GI50 (SNB-78): > 100 µM (inactive)
GI50 (M14): > 100 µM (inactive)
GI50 (NCI-H522): 29 µM (inactive)
GI50 (DMS-273): > 100 µM (inactive)
GI50 (K562): > 100 µM (inactive)
GI50 (TK-10): > 100 µM (inactive)
GI50 (HOP-62): 51.5 µM (inactive)
GI50 (DLD-1): > 100 µM (inactive)
GI50 (HCC 2998): > 100 µM (inactive)
GI50 (CCRF-CEM): > 100 µM (inactive)

Clc1ccc(CCn2cncn2)cc1
GI50 (LXFL 529): > 100 µM (inactive)
GI50 (NCI-H23): > 100 µM (inactive)
GI50 (SNB-75): 86.3 µM (inactive)
GI50 (MOLT-4): > 100 µM (inactive)
GI50 (RPMI-8226): > 100 µM (inactive)
GI50 (DMS-114): > 100 µM (inactive)
GI50 (SK-MEL-5): > 100 µM (inactive)
GI50 (SK-MEL-28): > 100 µM (inactive)
GI50 (OVCAR-5): > 100 µM (inactive)
GI50 (RXF 393): > 100 µM (inactive)
GI50 (KM-20L2): > 100 µM (inactive)
GI50 (M19-MEL): > 100 µM (inactive)
GI50 (786-0): > 100 µM (inactive)
GI50 (U-251): > 100 µM (inactive)
GI50 (NCI-H460): > 100 µM (inactive)
GI50 (SF-295): > 100 µM (inactive)
GI50 (OVCAR-3): > 100 µM (inactive)
GI50 (HCT-15): > 100 µM
GI50 (OVCAR-4): > 100 µM (inactive)
GI50 (HL-60): > 100 µM (inactive)
GI50 (HT-29): > 100 µM (inactive)
GI50 (ACHN): > 100 µM (inactive)
GI50 (UO-31): > 100 µM (inactive)
GI50 (CAKI-1): > 100 µM (inactive)
GI50 (SR): > 100 µM (inactive)
GI50 (UACC-62): > 100 µM (inactive)
GI50 (NCI-H226): > 100 µM (inactive)
GI50 (A549): > 100 µM (inactive)
GI50 (SF-268): > 100 µM (inactive)
GI50 (KM12): > 100 µM (inactive)
GI50 (SK-OV-3): > 100 µM (inactive)
GI50 (IGROV-1): > 100 µM (inactive)
GI50 (SK-MEL-2): > 100 µM (inactive)
GI50 (LOX IMVI): > 100 µM (inactive)
GI50 (SW-620): > 100 µM (inactive)
GI50 (Malme-3M): > 100 µM (inactive)
GI50 (UACC-257): > 100 µM (inactive)
GI50 (HOP-18): > 100 µM (inactive)
GI50 (COLO 205): > 100 µM (inactive)
GI50 (OVCAR-8): > 100 µM (inactive)
GI50 (SN12C): > 100 µM (inactive)
GI50 (HOP-92): > 100 µM (inactive)
GI50 (SNB-78): > 100 µM (inactive)
GI50 (M14): > 100 µM (inactive)
GI50 (NCI-H522): > 100 µM (inactive)
GI50 (DMS-273): > 100 µM (inactive)
GI50 (K562): > 100 µM (inactive)
GI50 (TK-10): > 100 µM (inactive)
GI50 (HOP-62): > 100 µM (inactive)
GI50 (HCT-116): > 100 µM (inactive)
GI50 (DLD-1): > 100 µM (inactive)
GI50 (SF-539): > 100 µM (inactive)
GI50 (A498): > 100 µM (inactive)
GI50 (CCRF-CEM): > 100 µM (inactive)

C/C(=N\OCC(O)CNC(C)C)c1ccc2c(c1)NC(=O)CS2 (stereo unspecified)
GI50 (LXFL 529): > 100 µM (inactive)
GI50 (NCI-H23): > 100 µM (inactive)
GI50 (EKVX): > 100 µM (inactive)
GI50 (SNB-75): 50.6 µM (inactive)
GI50 (MOLT-4): > 100 µM (inactive)
GI50 (DMS-114): > 100 µM (inactive)
GI50 (SK-MEL-5): > 100 µM (inactive)
GI50 (SK-MEL-28): > 100 µM (inactive)
GI50 (OVCAR-5): > 100 µM (inactive)
GI50 (RXF 393): > 100 µM (inactive)
GI50 (KM-20L2): > 100 µM (inactive)
GI50 (M19-MEL): > 100 µM (inactive)
GI50 (786-0): > 100 µM (inactive)
GI50 (U-251): > 100 µM (inactive)
GI50 (SNB-19): > 100 µM (inactive)
GI50 (NCI-H460): > 100 µM (inactive)
GI50 (SF-295): > 100 µM (inactive)
GI50 (OVCAR-3): > 100 µM (inactive)
GI50 (HCT-15): > 100 µM
GI50 (OVCAR-4): > 100 µM (inactive)
GI50 (HT-29): > 100 µM (inactive)
GI50 (ACHN): > 100 µM (inactive)
GI50 (UO-31): 91.2 µM (inactive)
GI50 (UACC-62): > 100 µM (inactive)
GI50 (XF498): > 100 µM (inactive)
GI50 (NCI-H226): > 100 µM (inactive)
GI50 (A549): > 100 µM (inactive)
GI50 (SF-268): > 100 µM (inactive)
GI50 (KM12): > 100 µM (inactive)
GI50 (SK-OV-3): > 100 µM (inactive)
GI50 (SK-MEL-2): > 100 µM (inactive)
GI50 (LOX IMVI): > 100 µM (inactive)
GI50 (SW-620): > 100 µM (inactive)
GI50 (Malme-3M): > 100 µM (inactive)
GI50 (UACC-257): > 100 µM (inactive)
GI50 (HOP-18): > 100 µM (inactive)
GI50 (COLO 205): > 100 µM (inactive)
GI50 (OVCAR-8): > 100 µM (inactive)
GI50 (SN12C): > 100 µM (inactive)
GI50 (HOP-92): 42.1 µM (inactive)
GI50 (SNB-78): > 100 µM (inactive)
GI50 (M14): > 100 µM (inactive)
GI50 (NCI-H522): > 100 µM (inactive)
GI50 (K562): > 100 µM (inactive)
GI50 (TK-10): > 100 µM (inactive)
GI50 (HOP-62): > 100 µM (inactive)
GI50 (HCT-116): > 100 µM (inactive)
GI50 (DLD-1): > 100 µM (inactive)
GI50 (HCC 2998): > 100 µM (inactive)
GI50 (SF-539): > 100 µM (inactive)
GI50 (A498): > 100 µM (inactive)
GI50 (CCRF-CEM): > 100 µM (inactive)
